# Test results: patent publication US8076329B2, “Histamine H3-receptor ligands and their therapeutic applications” (Bioprojet, priority 2005, dated 2011)
# Counter-ions that a name gives are not always drawn.
# Key:
# [1] = biological target: CYP2D6 (Homo sapiens, UniProt P10635); assay: Cytochrome inhibition, fluorometric microtiter plate assay; assay type: in vitro ADME; details: CYP2D6 cytochrome inhibition (IC50, concentrations in μM for 50% inhibition), human recombinant CYP2D6, substrate AMMC; compounds of the invention
# Procedure: (§1) The ability of drug in human to inhibit the catalytic activity of cytochrome P-450 isoforms was assayed using microtiter plate-based, fluorometric assays for the activities of the five human major CYP forms. Inhibition potential was determined in vitro after incubation of fluorescent model substrates over various incubation time with human recombinant cytochrome isoforms in the absence or in presence of increasing concentrations of test molecules (from 1 nM to 100 μM), in comparison with specific CYP isoform inhibitors.
# (§2) Incubation of drug was carried out at 37° C.±0.5° C. under agitation in the presence of human recombinant cytochrome P-450 isoforms and a NADPH generating system. The incubation conditions for each cytochrome isoform were as follows: […]
# [2] = biological target: CYP3A4 (Homo sapiens, UniProt P08684); assay: as above; assay type: in vitro ADME; details: CYP3A4 cytochrome inhibition (IC50, concentrations in μM for 50% inhibition), human recombinant CYP3A4, substrate BFC; compounds of the invention
# Procedure: as §1, §2
# [3] = biological target: human histamine H3 receptors (Homo sapiens, UniProt Q9Y5N1); assay: H3 binding ([125I]iodoproxyfan displacement on membranes); details: compounds of the invention; membranes expressing human H3 receptors
# Procedure: Membranes expressing human histamine H3 receptors were incubated 1 hour at room temperature in binding buffer containing 50 mM Na2HPO4/KH2PO4 pH 7.5 in a final volume of 200 μl. […] The reaction was stopped by rapid filtration through GF/B filters (pre-soaked for 2 hours with 0.3% polyethyleneimine) followed by 3 ice cold binding buffer washes. The filter-bound radioactivity was measured in a liquid scintillation counter with 50 μl of scintillation fluid.
# Sequence of CYP2D6 (P10635 whole entry, canonical isoform): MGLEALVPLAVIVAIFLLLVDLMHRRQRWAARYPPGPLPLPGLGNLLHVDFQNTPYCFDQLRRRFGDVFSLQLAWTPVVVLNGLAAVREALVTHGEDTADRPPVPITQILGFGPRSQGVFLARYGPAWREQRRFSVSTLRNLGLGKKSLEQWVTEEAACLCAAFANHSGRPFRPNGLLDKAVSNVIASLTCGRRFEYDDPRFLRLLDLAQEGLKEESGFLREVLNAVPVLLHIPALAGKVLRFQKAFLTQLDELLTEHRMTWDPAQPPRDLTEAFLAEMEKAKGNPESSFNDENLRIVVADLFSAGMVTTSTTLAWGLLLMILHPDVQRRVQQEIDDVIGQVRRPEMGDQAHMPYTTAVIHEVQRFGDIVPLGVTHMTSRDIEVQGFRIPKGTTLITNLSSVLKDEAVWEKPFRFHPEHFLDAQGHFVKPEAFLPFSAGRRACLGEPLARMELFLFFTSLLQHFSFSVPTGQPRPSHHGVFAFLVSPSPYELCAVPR
# Sequence of human histamine H3 receptors (Q9Y5N1 whole entry): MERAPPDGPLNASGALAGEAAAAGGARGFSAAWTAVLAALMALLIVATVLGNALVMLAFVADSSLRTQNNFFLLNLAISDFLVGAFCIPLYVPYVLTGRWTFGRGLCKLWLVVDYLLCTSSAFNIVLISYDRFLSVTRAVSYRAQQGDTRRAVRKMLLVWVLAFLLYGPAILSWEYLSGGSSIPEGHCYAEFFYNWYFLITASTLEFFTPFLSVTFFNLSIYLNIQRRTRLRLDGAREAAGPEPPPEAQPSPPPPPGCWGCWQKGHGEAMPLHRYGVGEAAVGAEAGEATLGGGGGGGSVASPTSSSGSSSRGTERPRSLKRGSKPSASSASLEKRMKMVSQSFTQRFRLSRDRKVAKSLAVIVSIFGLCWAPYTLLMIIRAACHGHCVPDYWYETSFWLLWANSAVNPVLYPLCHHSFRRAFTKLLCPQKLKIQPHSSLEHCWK
# Sequence of CYP3A4 (P08684 whole entry): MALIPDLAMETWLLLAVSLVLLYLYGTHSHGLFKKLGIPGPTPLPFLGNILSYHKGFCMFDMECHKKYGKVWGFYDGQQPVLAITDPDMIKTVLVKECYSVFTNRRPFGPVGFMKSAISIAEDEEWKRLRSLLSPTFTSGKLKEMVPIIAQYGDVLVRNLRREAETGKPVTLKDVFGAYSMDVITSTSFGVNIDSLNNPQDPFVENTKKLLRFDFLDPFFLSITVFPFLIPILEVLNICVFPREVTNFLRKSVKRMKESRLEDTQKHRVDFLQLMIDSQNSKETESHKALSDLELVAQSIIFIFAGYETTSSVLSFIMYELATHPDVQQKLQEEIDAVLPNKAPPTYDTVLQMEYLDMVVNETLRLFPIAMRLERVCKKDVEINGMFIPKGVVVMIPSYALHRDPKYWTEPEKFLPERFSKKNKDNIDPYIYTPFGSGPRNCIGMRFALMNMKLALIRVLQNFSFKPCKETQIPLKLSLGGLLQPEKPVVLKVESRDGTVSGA
melting point [°C],IC50 [1] [µM],IC50 [2] [µM],Ki [3] [nM],Compound
240,–,–,–,"C[C@H]1C[C@H](C)CN(CCCOc2ccc([C@H]3CC[C@H](N(C)C)CC3)cc2)C1 (as salt: hydrochloride) [Example 12, (3S,5S)-1-{3-[4-(trans-4-dimethylaminocyclohex-1-yl)phenoxy]propyl}-3,5-dimethylpiperidine]"
130,–,–,–,c1cc(-c2ccc(OCCCN3CCCCC3)cc2)ccc1CCCN1CCCCC1 (as salt: oxalate) [Example 48]
80,–,–,–,"CC1CCCN1CCCOc1ccc([C@H]2CC[C@H](O)CC2)cc1 (stereo partly drawn) (as salt: oxalate) [Example 66, 1-{3-[trans-4-(4-hydroxycyclohexyl)phenoxy]propyl}-2-methylpyrrolidine]"
104,> 10,46,–,"O=C(O)C(=O)O.O=C(O)C(=O)O.c1cc(C2=NCCCC2)ccc1OCCCN1CCCCC1 [Example 15, 6-[4-(3-piperidinopropoxy)phenyl]-2,3,4,5-tetrahydropyridine]"
195,> 10,> 10,3.5,"Cc1ccc(-c2ccc(OCCCN3CCCCC3)cc2)cc1.O=C(O)C(=O)O [Example 24, 1-{3-[(4′-methylbiphenyl-4-yl)oxy]propyl}piperidine]"
–,7,9,0.22,"c1cncc(-c2ccc(OCCCN3CCCCC3)cc2)c1 [Example 32, 1-{3-[4-(3-pyridyl)phenoxy]propyl}piperidine]"
–,71,5,0.1,"c1cc(-c2ccc(OCCCN3CCCCC3)cc2)ccc1OCCCN1CCCCC1 [Example 35, di-1,1′-{(biphenyl-4,4′-diyl)bis[oxy(propan-1,3-diyl)]}piperidine]"
105 to 108,> 10,15,–,"c1cc(-c2ccc(OCCCN3CCCC3)cc2)ccc1OCCCN1CCCCC1 [Example 37, 1-(3-{[4′-(3-piperidinopropoxy)biphenyl-4-yl]oxy}propyl)pyrrolidine]"
90,> 10,> 10,–,"c1cc(-c2ccc(OCCCN3CCCCC3)cc2)ccc1CN1CCCCC1 [Example 42, 1-(3-{[4′-(piperidinomethyl)biphenyl-4-yl]oxy}propyl)piperidine]"
167,> 1,> 10,–,"C(#Cc1ccc(OCCCN2CCCCC2)cc1)CCN1CCCCC1.O=C(O)C(=O)O.O=C(O)C(=O)O [Example 43, 1-{3-[4-(4-Piperidinobut-1-yn-1-yl)phenoxy]propyl}piperidine]"
–,> 10,> 1,0.4,"Cc1cc(-c2ccc(OCCCN3CCC[C@H](C)C3)cc2)cc[n+]1[O-] [Example 54, 2-methyl-4-(4-{3-[(3S)-3-methylpiperidin-1-yl]propoxy}phenyl)pyridine 1-oxide]"
110,> 10,> 10,–,"C[C@H]1CCCN(CCCOc2ccc(-c3ccnc(O)c3)cc2)C1.O=C(O)C(=O)O [Example 55, 2-hydroxy-4-(4-{3-[(3S)-3-methylpiperidin-1-yl]propoxy}phenyl)pyridine]"
143,> 10,> 1,–,"C[C@H]1CCCN(CCCOc2ccc(-c3ccnc(Cl)c3)cc2)C1.O=C(O)C(=O)O.O=C(O)C(=O)O [Example 56, 2-chloro-4-(4-{3-[(3S)-3-methylpiperidin-1-yl]propoxy}phenyl)pyridine]"
–,> 10,> 10,0.061,"C[C@H]1CCCN(CCCOc2ccc(-c3ccnc(OCCCN4CCCCC4)c3)cc2)C1 [Example 58, 2-(3-piperidinopropoxy)-4-(4-{3-[(3S)-3-methylpiperidin-1-yl]propoxy}phenyl)-pyridine]"
97,> 10,> 10,–,"Cc1cc(-c2ccc(OCCCN3CCC[C@H](C)C3)cc2)ccn1.O=C(O)C(=O)O.O=C(O)C(=O)O [Example 59, 2-methyl-4-(4-{3-[(3S)-3-methylpiperidin-1-yl]propoxy}phenyl)pyridine]"
–,> 10,> 10,0.83,"CC1CCCN1CCCOc1ccc([C@H]2CC[C@H](O)CC2)cc1 (stereo partly drawn) [Example 66, 1-{3-[trans-4-(4-hydroxycyclohexyl)phenoxy]propyl}-2-methylpyrrolidine]"
–,> 10,> 10,1.19,"CN1CCC(CCOCc2ccc(OCCCN3CCCCC3)cc2)CC1 [Example 69, 1-methyl-4-{2-[4-(3-piperidinopropoxy)benzyloxy]ethyl}piperidine]"
